Measurements published in publication PMC6829278, “Suitability of GnRH Receptors for Targeted Photodynamic Therapy in Head and Neck Cancers” (International Journal of Molecular Sciences, 2019).
Read-outs that look alike come from different tables or passages of the source. Square brackets hold non-standard residues; d marks the D form. Peptide text beside a SMILES is read from it. * marks the point of attachment. X1 = C=CC1=C(C)c2cc3[nH]c(cc4nc(cc5[nH]c(cc1n2)c(C)c5CCC(=O)O)C(CCC(=O)*)=C4C)c(C)c3C=C; pGlu = O=C1CC[C@@H](C(=O)O)N1; Butyryl = CCCC(=O)*

Columns and labels:
[1] = system: Detroit-562 human pharyngeal carcinoma cells; assay: cells; conditions: for Effect of incubation time on cell viability inhibition: incubation 1, 3 or 5 h
Description: (compound 5) was used for the optimization of the conditions of the cell viability inhibition assays. First, the irradiation time was optimized. Detroit-562 pharyngeal cells were treated with the peptide-PpIX conjugate for 5 h, the unbound conjugate was washed out, and then the cells were irradiated for 0, 2, 10, or 30 min followed by 72 h of further incubation (Figure 6A).
Afterwards, the incubation time was optimized.
The cell viability inhibition of the synthesized GnRH-PpIX conjugates was measured on Detroit-562 cells using the previously optimized conditions (5 h treatment, 10 min irradiation).
Cells were seeded to 96-well plates (6·× 10^3 cells/well) 48 h prior to the treatment. The cells were treated with the peptides (10 μM) and conjugates (0.025–10 μM) in darkness. Stock solutions of the compounds were prepared in DMSO (5 mM) and all dilutions were made to contain 0.2% DMSO final concentration. The control wells were treated with medium or 0.2% DMSO containing medium. After 1, 3, or 5 h, the cells were washed once with medium, irradiated for 0, 2, 10, or 30 min and incubated for a further 72 h. The irradiation was performed by an Oriel type 250 W Quartz Tungsten Halogen lamp (Newport Corporation, CA, USA) with a 550 nm emission maximum. The light was filtered to exclude UV and IR components. The fluence rate was determined by a 10 A-P Nova laser power/energy monitor (Ophir, Optronix, Jerusalem, Israel) using the pyro-electric detector. Then, the MTT-test was performed according to the manufacturer’s instructions. Each point was measured using 3 parallels and each experiment was repeated twice.

[2] = target: T1, GnRH-R (membranes of human pituitary) (Homo sapiens, UniProt P30968); assay: Radioligand binding (ligand competition) assay, displacement of [125I]-[6D-Trp]-GnRH-I, human pituitary membranes; conditions: for Inhibition of the binding of [125I]-[6D-Trp]-GnRH-I: at a concentration of 10^-6 M, tissue (human pituitary / human prostate cancer) not specified
T1 construct: Tissue samples derived by autopsy from normal human pituitary (anterior lobe); from tissue; host or cells: normal human pituitary (anterior lobe), autopsy; membrane homogenates
T1 sequence (P30968 1-328): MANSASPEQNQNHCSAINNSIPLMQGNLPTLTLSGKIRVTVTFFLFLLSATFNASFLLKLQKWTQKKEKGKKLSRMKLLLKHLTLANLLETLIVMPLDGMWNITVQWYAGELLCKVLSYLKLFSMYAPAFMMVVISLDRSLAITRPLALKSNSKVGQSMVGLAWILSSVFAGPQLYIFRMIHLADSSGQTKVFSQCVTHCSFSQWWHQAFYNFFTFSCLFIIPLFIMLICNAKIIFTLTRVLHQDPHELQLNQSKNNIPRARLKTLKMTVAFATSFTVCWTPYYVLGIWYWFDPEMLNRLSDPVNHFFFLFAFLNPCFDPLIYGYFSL
From the text: (§1) The binding potency of the GnRH analogs and the GnRH-PpIX conjugates to human pituitary and human prostate cancer cells, that express GnRH-R in high concentration, was investigated by ligand competition assay.
(§2) Tissue samples derived by autopsy from normal human pituitary (anterior lobe) and human prostate cancer cells were obtained from a patient at the time of initial surgical treatment. The collection and the use of these specimens for our studies are approved by the local Institutional Ethics Committee. […] The assay was performed as described earlier. […] At the end of the incubation, 125 µL aliquots of suspension were transferred onto the top of 1 mL of ice-cold binding buffer containing 1.5% BSA in microcentrifuge tubes. The tubes were centrifuged at 12,000× g for 3 min at 4 °C. Supernatants were aspirated and the pellet was counted in a gamma counter. Protein concentration was determined by the method of Bradford, using a Bio-Rad protein assay kit (Bio-Rad Laboratories, Hercules, CA, USA). The LIGAND-PC computerized curve-fitting program of Munson and Rodbard was used to determine the receptor binding characteristics and IC50 values.

[3] = target: T2, GnRH-R (membranes of human prostate cancer cells) (Homo sapiens, UniProt P30968); assay: Radioligand binding (ligand competition) assay, displacement of [125I]-[6D-Trp]-GnRH-I, human prostate cancer membranes
T2 construct: human prostate cancer cells were obtained from a patient at the time of initial surgical treatment; from tissue; host or cells: human prostate cancer specimen from a patient at surgery; membrane homogenates
T2 sequence (P30968 1-328): T1 sequence (P30968 1-328)
From the text: as §1, §2

[4] = Detroit-562, 10 min irradiation
[5] = membranes of human pituitary, read-out: IC50 Values, inhibition of [125I]-[6D-Trp]-GnRH-I binding, Human Pituitary
[6] = membranes of human prostate cancer cells, read-out: IC50 Values, inhibition of [125I]-[6D-Trp]-GnRH-I binding, Human Prostate Cancer
[7] = Detroit-562, 0.1 µM, 5 h treatment, 10 min irradiation

Molecule | Inhibition of the binding of [125I]-[6D-Trp]-GnRH-I [2] | IC50 [2, 5] | IC50 [3, 6] | other results
C=CC1=C(C)c2cc3[nH]c(cc4nc(cc5[nH]c(cc1n2)c(C)c5CCC(=O)O)C(CCC(=O)O)=C4C)c(C)c3C=C [PpIX, Protoporphyrin IX, reference compound] | did not inhibit |  |  | Cell viability inhibition ([1]; Detroit-562, 0.25 µM, 5 h treatment, 10 min irradiation): ~ 50%; Effect of incubation time on cell viability inhibition [1, 4]: no significant difference; IC50 ([1]; Homo sapiens, Detroit 562, light or radiation study, read-out: Calculated IC50 values, cell viability inhibition): 209 ± 120 nM
CCCC(=O)NCCCC[C@H](NC(=O)[C@H](Cc1c[nH]c2ccccc12)NC(=O)[C@H](Cc1c[nH]cn1)NC(=O)[C@@H]1CCC(=O)N1)C(=O)N[C@@H](Cc1ccc(O)cc1)C(=O)N[C@H](CCCCN)C(=O)N[C@@H](CC(C)C)C(=O)N[C@@H](CCCNC(=N)N)C(=O)N1CCC[C@H]1C(=O)NCC(N)=O [compound 2, GnRH-I[^4Lys(Bu), ^6D-Lys]] ([pGlu]HWK(Butyryl)Y[dK]LRPG-NH2) |  | 9.7 ± 1.07 nM | 8.61 ± 1.08 nM | 
CCCC(=O)NCCCC[C@H](NC(=O)[C@H](Cc1c[nH]c2ccccc12)NC(=O)[C@H](Cc1c[nH]cn1)NC(=O)[C@@H]1CCC(=O)N1)C(=O)N[C@@H](Cc1c[nH]cn1)C(=O)N[C@H](CCCCN)C(=O)N[C@@H](Cc1c[nH]c2ccccc12)C(=O)N[C@@H](Cc1ccc(O)cc1)C(=O)N1CCC[C@H]1C(=O)NCC(N)=O [compound 3, GnRH-II[^4Lys(Bu), ^6D-Lys]] ([pGlu]HWK(Butyryl)H[dK]WYPG-NH2) |  | 5.56 ± 1.07 nM | 4.65 ± 0.31 nM | 
CCCC(=O)NCCCC[C@H](NC(=O)[C@H](Cc1c[nH]c2ccccc12)NC(=O)[C@H](Cc1c[nH]cn1)NC(=O)[C@@H]1CCC(=O)N1)C(=O)N[C@@H](Cc1c[nH]cn1)C(=O)N[C@@H](CC(=O)OC)C(=O)N[C@@H](Cc1c[nH]c2ccccc12)C(=O)N[C@@H](CCCCN)C(=O)N1CCC[C@H]1C(=O)NCC(N)=O [compound 4, GnRH-III[^4Lys(Bu), ^6Asp(OMe)]] |  | 7.27 ± 0.92 nM | 6.56 ± 1.11 nM | 
C=CC1=C(C)c2cc3[nH]c(cc4nc(cc5[nH]c(cc1n2)c(C)c5CCC(=O)O)C(CCC(=O)NCCCC[C@@H](NC(=O)[C@H](Cc1ccc(O)cc1)NC(=O)[C@H](CO)NC(=O)[C@H](Cc1c[nH]c2ccccc12)NC(=O)[C@H](Cc1c[nH]cn1)NC(=O)[C@@H]1CCC(=O)N1)C(=O)N[C@@H](CC(C)C)C(=O)N[C@@H](CCCNC(=N)N)C(=O)N1CCC[C@H]1C(=O)NCC(N)=O)=C4C)c(C)c3C=C [compound 5, GnRH-I[^6D-Lys(PpIX)]] |  | 36.3 ± 3.17 nM | 42.7 ± 7.04 nM | IC50 ([1]; 5 h): 62.3 ± 5.9 nM; Cell viability inhibition [1, 7]: > 90%; Cell viability inhibition (irradiation time optimization) [1, 7]: ~ 98%; Cell viability inhibition (irradiation time optimization) ([1]; Detroit-562, 0.1 µM, 5 h treatment, 30 min irradiation): ~ 98%; Toxicity in the absence of light ([1]; Detroit-562, 5 h treatment, 0 min irradiation, 72 h further incubation): non-toxic; Cell viability inhibition ([1]; Detroit-562, 5 h treatment, 2 min irradiation, sub-micromolar concentration): 50%; Effect of incubation time on cell viability inhibition [1, 4]: higher activity
C=CC1=C(C)c2cc3[nH]c(cc4nc(cc5[nH]c(cc1n2)c(C)c5CCC(=O)O)C(CCC(=O)NCCCC[C@H](NC(=O)[C@H](Cc1c[nH]c2ccccc12)NC(=O)[C@H](CC(=O)OC)NC(=O)[C@H](Cc1c[nH]cn1)NC(=O)[C@H](CCCCNC(=O)CCC)NC(=O)[C@H](Cc1c[nH]c2ccccc12)NC(=O)[C@H](Cc1c[nH]cn1)NC(=O)[C@@H]1CCC(=O)N1)C(=O)N1CCC[C@H]1C(=O)NCC(N)=O)=C4C)c(C)c3C=C [compound 8, GnRH-III[^4Lys(Bu), ^6Asp(OMe), ^8Lys(PpIX)]] |  |  |  | Cell viability inhibition [1, 7]: 65–70%; IC50 ([1]; read-out: Calculated IC50 values, cell viability inhibition, Detroit-562 cells, 5 h incubation, 10 min irradiation, further 72 h, MTT): 81.8 ± 12.6 nM; IC50 [2]: 289 ± 17.3 nM; IC50 [3]: 341 ± 21.1 nM
EGF: peptide used as binding specificity control [reference compound] | did not inhibit |  |  | 
IGF-I: peptide used as binding specificity control [reference compound] | did not inhibit |  |  | 
glucagon: peptide used as binding specificity control [reference compound] | did not inhibit |  |  | 
somatostatin-14: peptide structurally and/or functionally unrelated to GnRH, binding specificity control [reference compound] | did not inhibit |  |  | 

More lines, main results first:

Inhibition of the binding of [125I]-[6D-Trp]-GnRH-I [2] | IC50 [2, 5] | IC50 [3, 6] | Molecule | other results
 | 42.3 ± 4.27 nM | 41.8 ± 5.74 nM | C=CC1=C(C)c2cc3[nH]c(cc4nc(cc5[nH]c(cc1n2)c(C)c5CCC(=O)O)C(CCC(=O)NCCCC[C@@H](NC(=O)[C@H](Cc1ccc(O)cc1)NC(=O)[C@H](CCCCNC(=O)CCC)NC(=O)[C@H](Cc1c[nH]c2ccccc12)NC(=O)[C@H](Cc1c[nH]cn1)NC(=O)[C@@H]1CCC(=O)N1)C(=O)N[C@@H](CC(C)C)C(=O)N[C@@H](CCCNC(=N)N)C(=O)N1CCC[C@H]1C(=O)NCC(N)=O)=C4C)c(C)c3C=C [compound 6, GnRH-I[^4Lys(Bu), ^6D-Lys(PpIX)]] ([pGlu]HWK(Butyryl)Y[dK](X1)LRPG-NH2) | IC50 ([1]; 5 h): 89.8 ± 19.4 nM; Cell viability inhibition [1, 7]: 65–70%
 | 79.4 ± 8.88 nM | 84.5 ± 10.3 nM | C=CC1=C(C)c2cc3[nH]c(cc4nc(cc5[nH]c(cc1n2)c(C)c5CCC(=O)O)C(CCC(=O)NCCCC[C@@H](NC(=O)[C@H](Cc1c[nH]cn1)NC(=O)[C@H](CCCCNC(=O)CCC)NC(=O)[C@H](Cc1c[nH]c2ccccc12)NC(=O)[C@H](Cc1c[nH]cn1)NC(=O)[C@@H]1CCC(=O)N1)C(=O)N[C@@H](Cc1c[nH]c2ccccc12)C(=O)N[C@@H](Cc1ccc(O)cc1)C(=O)N1CCC[C@H]1C(=O)NCC(N)=O)=C4C)c(C)c3C=C [compound 7, GnRH-II[^4Lys(Bu), ^6D-Lys(PpIX)]] ([pGlu]HWK(Butyryl)H[dK](X1)WYPG-NH2) | IC50 ([1]; 5 h): 71.1 ± 6.2 nM; Cell viability inhibition [1, 7]: > 90%
did not inhibit |  |  | VIP: peptide used as binding specificity control [reference compound] | 
did not inhibit |  |  | hGHRH: peptide used as binding specificity control [reference compound] | 
